In patent US12016833B2 (ACEBiomed, Inc., priority 2020, dated 2024):
Read-outs that look alike come from different tables or passages of the source.

Experiments:
[1] = HFD rats; colchicine (10 μg/kg) alone or colchicine (10 μg/kg)/metformin (50 mg/kg), oral gavage 3 times a week, 6 weeks; FIG. 2
Description: (§1) The drugs were administered with a high fat diet for a total of 6 weeks, and administered by oral gavage 3 times a week.

[2] = test system: AMPK; conditions: HFD rats; colchicine 100 μg/kg alone or with metformin 100 mg/kg; FIG. 6
Description: as §1

[3] = test system: obesity-induced rats; conditions: HFD rats
Description: as §1

[4] = test system: ACC; conditions: rat AML12 liver cell line; drug treatment for 7 hours; FIG. 7
[5] = test system: obesity-induced rats; conditions: HFD rats; remark: listed apart in the source
Description: as §1

[6] = test system: obesity-induced rats; assay: Fat accumulated in liver tissue, oil red O staining; type: in vivo; conditions: HFD rats; FIG. 5
Description: In addition, in order to examine a quantitative change of fat accumulated in the liver tissues of the rats, the fat was confirmed by staining using an oil red O method, and the results were shown in FIG. 5.

[7] = test system: obesity-induced rats; assay: Anatomical test of liver cross-sections by H&E staining; type: in vivo; conditions: HFD rats; colchicine 100 μg/kg alone or with metformin 100 mg/kg; FIG. 4
Description: For the anatomical test of the cross-sections of the livers of the rats, H&E staining was applied, and the results were shown in FIG. 4.

[8] = test system: AMPK; conditions: drug treatment for 7 hours; FIG. 7
[9] = test system: obesity-induced rats; conditions: HFD rats; remark: listed apart in the source
Description: as §1

[10] = test system: ACC; conditions: HFD rats; colchicine 100 μg/kg alone or with metformin 100 mg/kg; FIG. 6
Description: as §1

[11] = colchicine 10 μg/kg alone, Table 1
[12] = colchicine 50 μg/kg alone, Table 1
[13] = colchicine 100 μg/kg alone, Table 1
[14] = colchicine 100 μg/kg alone, Table 2
[15] = colchicine 200 μg/kg alone, Table 1
[16] = colchicine 10 μg/kg alone, Table 3
[17] = colchicine 50 μg/kg alone, Table 3
[18] = colchicine 100 μg/kg alone, Table 3
[19] = colchicine 100 μg/kg alone, Table 4
[20] = colchicine 200 μg/kg alone, Table 3

COc1cc2c(c(OC)c1OC)-c1ccc(OC)c(=O)cc1[C@@H](NC(C)=O)CC2 [Colchicine]
change in weights of the whole rats [1]: no significant change
activation of AMPK in liver tissues [2]: partially recovered
Hydroxyproline ([3]; colchicine 10 μg/kg alone, Table 5): 345.28 ± 8.14 μg/g of liver
Hydroxyproline ([3]; colchicine 50 μg/kg alone, Table 5): 326.46 ± 14.55 μg/g of liver
Hydroxyproline ([3]; colchicine 100 μg/kg alone, Table 5): 308.13 ± 5.04 μg/g of liver
Hydroxyproline ([3]; colchicine 100 μg/kg alone, Table 6): 316.68 ± 13.36 μg/g of liver
activation of ACC [4]: increased
Ballooning degeneration ([5]; FIG. 3): reduced
Portal inflammation ([5]; FIG. 3): reduced
macrovesicular steatosis ([5]; FIG. 3): no effect
microvesicular steatosis ([5]; FIG. 3): reduced
Ballooning degeneration [5, 11]: 2
Fatty necrosis [5, 11]: 3
Fibrosis [5, 11]: 3
Portal inflammation [5, 11]: 2
Total score [5, 11]: 10
Ballooning degeneration [5, 12]: 2
Fatty necrosis [5, 12]: 2
Fibrosis [5, 12]: 2
Portal inflammation [5, 12]: 2
Total score [5, 12]: 8
Ballooning degeneration [5, 13]: 1
Fatty necrosis [5, 13]: 2
Fibrosis [5, 13]: 1
Portal inflammation [5, 13]: 1
Total score [5, 13]: 5
Ballooning degeneration [5, 14]: 1
Fatty necrosis [5, 14]: 2
Fibrosis [5, 14]: 1
Portal inflammation [5, 14]: 2
Total score [5, 14]: 6
Ballooning degeneration [5, 15]: 2
Fatty necrosis [5, 15]: 2
Fibrosis [5, 15]: 1
Portal inflammation [5, 15]: 2
Total score [5, 15]: 7
fat accumulation in the liver tissues (oil red O) [6]: reduced
steatosis in the liver tissues (H&E staining) [7]: reduced
activation of AMPK [8]: increased
ALT [9, 16]: 1742.57 ± 102.71 U/L
AST [9, 16]: 1766.90 ± 90.48 U/L
Total protein [9, 16]: 5.07 ± 0.30 g/dL
ALT [9, 17]: 1602.38 ± 61.31 U/L
AST [9, 17]: 1759.49 ± 61.71 U/L
Total protein [9, 17]: 5.21 ± 0.33 g/dL
ALT [9, 18]: 1466.48 ± 49.34 U/L
AST [9, 18]: 1614.70 ± 78.28 U/L
Total protein [9, 18]: 5.24 ± 0.13 g/dL
ALT [9, 19]: 1508.64 ± 102.38 U/L
AST [9, 19]: 1574.22 ± 75.98 U/L
Total protein [9, 19]: 5.13 ± 0.22 g/dL
ALT [9, 20]: 1735.40 ± 86.49 U/L
AST [9, 20]: 1833.70 ± 131.74 U/L
Total protein [9, 20]: 5.09 ± 0.32 g/dL
activation of ACC in liver tissues [10]: partially recovered
